Columns and labels:
[1] = blood midazolam concentrations after oral midazolam in wild-type, HRN and Ad-3A4/red virus-infected HRN mice; details: oral 2.5 mg/kg midazolam
[2] = tested on: Chinese Hamster Ovary (CHO) cell line transfected with human cytochrome P450 2D6 (CYP2D6); experiment: metabolism of midazolam or bufuralol in CHO cells transfected with human CYP2D6, with or without Ad-3A4/red infection; details: CHO/2D6 cells uninfected or infected with control Ad-GFP; 10 μM, four hours

Compound: Cc1ncc2n1-c1ccc(Cl)cc1C(c1ccccc1F)=NC2 [midazolam]
- peak midazolam concentration ([1]; HRN mice infected with Ad-3A4/red virus (72 h before)): 109 ng/mL
- circulating midazolam concentration, peak value ([1]; non-infected HRN mice): 260 ng/mL
- time circulating midazolam remained detectable ([1]; non-infected HRN mice): > 6 h
- circulating midazolam concentration, peak value ([1]; wild-type mice): 128 ng/mL
- time until circulating midazolam became undetectable again ([1]; wild-type mice): ≤ 3 h
- midazolam metabolism (1'-hydroxymidazolam formation) [2]: extremely slow
